Data as given in ChEMBL document CHEMBL1201861, “Genomics of Drug Sensitity in Cancer screening data, Wellcome Trust Sanger Institute”.

Experiments:
Assay in all cases: cells
Type in all cases: functional, cell-based
Conditions in all cases: Homo sapiens
[1] = test system: Ca9-22;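 also: growth inhibition of Ca9-22 cells, read out with a cell viability assay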
Description: SANGER: Inhibition of human Ca9-22 cell growth in a cell viability assay.

[2] = test system: Calu-3;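 also: growth inhibition of human Calu-3 cells, determined with a cell viability assay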
Description: SANGER: Inhibition of human Calu-3 cell growth in a cell viability assay.

[3] = test system: D-336MG
Description: SANGER: Inhibition of human D-336MG cell growth in a cell viability assay.

[4] = test system: D-392MG
[5] = test system: D-542MG
Description: SANGER: Inhibition of human D-542MG cell growth in a cell viability assay.

[6] = test system: EFO-27;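 also: growth inhibition of EFO-27 cells, read out with a cell viability assay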
Description: SANGER: Inhibition of human EFO-27 cell growth in a cell viability assay.

[7] = test system: HCC1395;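 also: growth inhibition of HCC1395 cells, read out by a cell viability assay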
Description: SANGER: Inhibition of human HCC1395 cell growth in a cell viability assay.

[8] = test system: HO-1-N-1;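 also: growth inhibition of human HO-1-N-1 cells, read out with a cell viability assay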
Description: SANGER: Inhibition of human HO-1-N-1 cell growth in a cell viability assay.

[9] = test system: HPAF-II;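 also: growth inhibition of HPAF-II cells, read out with a cell viability assay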
Description: SANGER: Inhibition of human HPAF-II cell growth in a cell viability assay.

[10] = test system: HT55;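 also: cell viability readout measuring growth inhibition of human HT55 cells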
Description: SANGER: Inhibition of human HT55 cell growth in a cell viability assay.

[11] = test system: KP-N-YN;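 also: growth inhibition of KP-N-YN cells, read out with a cell viability assay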
Description: SANGER: Inhibition of human KP-N-YN cell growth in a cell viability assay.

[12] = test system: KYSE-180;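 also: growth inhibition of KYSE-180 cells, read out with a cell viability assay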
Description: SANGER: Inhibition of human KYSE-180 cell growth in a cell viability assay.

[13] = test system: KYSE-70 cell line;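 also: cell viability assay read-out, with IC50 expressing suppression of KYSE-70 cell growth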
Description: SANGER: Inhibition of human KYSE-70 cell growth in a cell viability assay.

[14] = test system: LCLC-103H cell line
Description: SANGER: Inhibition of human LCLC-103H cell growth in a cell viability assay.

[15] = test system: LoVo;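 also: growth inhibition of human LoVo cells, read out with a cell viability assay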
Description: SANGER: Inhibition of human LoVo cell growth in a cell viability assay.

[16] = test system: MDA-MB-361
[17] = test system: MDA-MB-415
[18] = test system: ME-180;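 also: cell viability assay measuring growth inhibition of ME-180 cells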
Description: SANGER: Inhibition of human ME-180 cell growth in a cell viability assay.

[19] = test system: MFE-280;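 also: growth inhibition of MFE-280 cells, determined with a cell viability readout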
Description: SANGER: Inhibition of human MFE-280 cell growth in a cell viability assay.

[20] = test system: MKN-28;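 also: cell viability assay read-out, IC50 reflects suppression of growth of human MKN-28 cells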
Description: SANGER: Inhibition of human MKN28 cell growth in a cell viability assay.

[21] = test system: NB17;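 also: growth inhibition of NB17 cells, read out with a cell viability assay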
Description: SANGER: Inhibition of human NB17 cell growth in a cell viability assay.

[22] = test system: NCI-H1437;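 also: growth inhibition of human NCI-H1437 cells, read out by a cell viability assay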
Description: SANGER: Inhibition of human NCI-H1437 cell growth in a cell viability assay.

[23] = test system: NCI-H1703;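 also: growth inhibition of NCI-H1703 cells, read out via a cell viability assay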
Description: SANGER: Inhibition of human NCI-H1703 cell growth in a cell viability assay.

[24] = test system: NCI-H1755;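 also: cell viability readout used to measure growth inhibition of NCI-H1755 cells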
Description: SANGER: Inhibition of human NCI-H1755 cell growth in a cell viability assay.

[25] = test system: NCI-H2087;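 also: growth inhibition determined with a cell viability readout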
Description: SANGER: Inhibition of human NCI-H2087 cell growth in a cell viability assay.

[26] = test system: NCI-H2122;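 also: growth inhibition of the cells, read out with a cell viability assay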
Description: SANGER: Inhibition of human NCI-H2122 cell growth in a cell viability assay.

[27] = test system: NCI-H2452;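 also: growth inhibition of NCI-H2452 cells, read out with a cell viability assay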
Description: SANGER: Inhibition of human NCI-H2452 cell growth in a cell viability assay.

[28] = test system: NCI-H292;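 also: growth inhibition of NCI-H292 cells, read out with a cell viability assay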
Description: SANGER: Inhibition of human NCI-H292 cell growth in a cell viability assay.

[29] = test system: NCI-H358;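 also: growth inhibition of NCI-H358 human cells, read out with a cell viability assay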
Description: SANGER: Inhibition of human NCI-H358 cell growth in a cell viability assay.

[30] = test system: NCI-H522;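 also: cell viability assay measuring growth inhibition of human NCI-H522 cells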
Description: SANGER: Inhibition of human NCI-H522 cell growth in a cell viability assay.

[31] = test system: NCI-H810;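 also: IC50 reflects inhibition of cancer cell line growth, read out with a cell viability assay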
Description: SANGER: Inhibition of human NCI-H810 cell growth in a cell viability assay.

[32] = test system: OE33;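 also: growth inhibition of human OE33 cells, measured by a cell viability assay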
Description: SANGER: Inhibition of human OE33 cell growth in a cell viability assay.

[33] = test system: PC-14;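 also: cell viability assay measuring inhibition of PC-14 cell growth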
Description: SANGER: Inhibition of human PC-14 cell growth in a cell viability assay.

[34] = test system: RD
Description: SANGER: Inhibition of human RD cell growth in a cell viability assay.

[35] = test system: RPMI-7951
Description: SANGER: Inhibition of human RPMI-7951 cell growth in a cell viability assay.

[36] = test system: RT-112
Description: SANGER: Inhibition of human RT-112 cell growth in a cell viability assay.

[37] = test system: SCC-4;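 also: growth inhibition of human SCC-4 cells, read out as cell viability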
Description: SANGER: Inhibition of human SCC-4 cell growth in a cell viability assay.

[38] = test system: SF-295;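 also: growth inhibition of SF-295 cells, read out with a cell viability assay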
Description: SANGER: Inhibition of human SF295 cell growth in a cell viability assay.

[39] = test system: SK-LU-1;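 also: cell viability assay measuring growth inhibition of human SK-LU-1 cells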
Description: SANGER: Inhibition of human SK-LU-1 cell growth in a cell viability assay.

[40] = test system: SW1463;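 also: growth inhibition of SW1463 cells, determined with a cell viability assay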
Description: SANGER: Inhibition of human SW1463 cell growth in a cell viability assay.

[41] = test system: SW-620;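 also: growth inhibition of human SW-620 cells, measured by a cell viability assay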
Description: SANGER: Inhibition of human SW620 cell growth in a cell viability assay.

[42] = test system: SW837;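 also: growth inhibition of SW837 cells, determined with a cell viability assay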
Description: SANGER: Inhibition of human SW837 cell growth in a cell viability assay.

[43] = test system: SW948;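 also: growth inhibition of SW948 cells, read out with a cell viability assay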
Description: SANGER: Inhibition of human SW948 cell growth in a cell viability assay.

[44] = test system: 5637
Description: SANGER: Inhibition of human 5637 cell growth in a cell viability assay.

[45] = test system: 639-V;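 also: growth inhibition of 639-V cells, read out with a cell viability assay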
Description: SANGER: Inhibition of human 639-V cell growth in a cell viability assay.

[46] = test system: 8505C
Description: SANGER: Inhibition of human 8505C cell growth in a cell viability assay.

[47] = test system: A 172;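 also: growth inhibition of A172 cells, measured with a cell viability readout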
Description: SANGER: Inhibition of human A172 cell growth in a cell viability assay.

[48] = test system: ABC-1;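 also: growth inhibition of human ABC-1 cells, read out by a cell viability assay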
Description: SANGER: Inhibition of human ABC-1 cell growth in a cell viability assay.

[49] = test system: AGS;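 also: growth inhibition of AGS cells, determined with a cell viability assay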
Description: SANGER: Inhibition of human AGS cell growth in a cell viability assay.

[50] = test system: BEN;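 also: growth inhibition of the BEN cell line, read out with a cell viability assay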
Description: SANGER: Inhibition of human BEN cell growth in a cell viability assay.

[51] = test system: BFTC-909
Description: SANGER: Inhibition of human BFTC-909 cell growth in a cell viability assay.

[52] = test system: BT-20;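 also: cell viability assay measuring suppression of growth in human BT-20 cells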
Description: SANGER: Inhibition of human BT-20 cell growth in a cell viability assay.

[53] = test system: TYK-nu;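 also: growth inhibition of human TYK-nu cells, read out by a cell viability assay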
Description: SANGER: Inhibition of human TYK-nu cell growth in a cell viability assay.

[54] = test system: UACC-62;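 also: growth inhibition of human UACC-62 cells, read out by a cell viability assay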
Description: SANGER: Inhibition of human UACC-62 cell growth in a cell viability assay.

SMILES: O=c1cc(N2CCOCC2)oc2c(-c3cccc4c3sc3ccccc34)cccc12
- IC50 [1]: > 2000 nM
- IC50 [2]: > 2000 nM
- IC50 [3]: > 2000 nM
- IC50 [4]: > 2000 nM
- IC50 [5]: > 2000 nM
- IC50 [6]: > 2000 nM
- IC50 [7]: > 2000 nM
- IC50 [8]: > 2000 nM
- IC50 [9]: > 2000 nM
- IC50 [10]: > 2000 nM
- IC50 [11]: > 2000 nM
- IC50 [12]: > 2000 nM
- IC50 [13]: > 2000 nM
- IC50 [14]: > 2000 nM
- IC50 [15]: 867 nM
- IC50 [16]: > 2000 nM
- IC50 [17]: > 2000 nM
- IC50 [18]: > 2000 nM
- IC50 [19]: > 2000 nM
- IC50 [20]: > 2000 nM
- IC50 [21]: > 2000 nM
- IC50 [22]: > 2000 nM
- IC50 [23]: > 2000 nM
- IC50 [24]: > 2000 nM
- IC50 [25]: > 2000 nM
- IC50 [26]: > 2000 nM
- IC50 [27]: > 2000 nM
- IC50 [28]: 1740 nM
- IC50 [29]: > 2000 nM
- IC50 [30]: > 2000 nM
- IC50 [31]: > 2000 nM
- IC50 [32]: > 2000 nM
- IC50 [33]: > 2000 nM
- IC50 [34]: > 2000 nM
- IC50 [35]: > 2000 nM
- IC50 [36]: > 2000 nM
- IC50 [37]: > 2000 nM
- IC50 [38]: > 2000 nM
- IC50 [39]: > 2000 nM
- IC50 [40]: > 2000 nM
- IC50 [41]: > 2000 nM
- IC50 [42]: > 2000 nM
- IC50 [43]: > 2000 nM
- IC50 [44]: > 2000 nM
- IC50 [45]: 1440 nM
- IC50 [46]: > 2000 nM
- IC50 [47]: 153 nM
- IC50 [48]: > 2000 nM
- IC50 [49]: > 2000 nM
- IC50 [50]: > 2000 nM
- IC50 [51]: > 2000 nM
- IC50 [52]: > 2000 nM
- IC50 [53]: > 2000 nM
- IC50 [54]: > 2000 nM

SMILES: Cn1c(=O)n(-c2ccc(C(C)(C)C#N)cc2)c2c3cc(-c4cnc5ccccc5c4)ccc3ncc21 [DACTOLISIB]
- IC50 [1]: 33.6 nM
- IC50 [2]: 72 nM
- IC50 [4]: 108 nM
- IC50 [6]: 24.3 nM
- IC50 [7]: 698 nM
- IC50 [8]: 25.2 nM
- IC50 [9]: 156 nM
- IC50 [10]: 1310 nM
- IC50 [11]: > 2000 nM
- IC50 [12]: 46.2 nM
- IC50 [13]: 152 nM
- IC50 [14]: 286 nM
- IC50 [15]: 48.4 nM
- IC50 [16]: 61 nM
- IC50 [17]: 177 nM
- IC50 [18]: 22.4 nM
- IC50 [19]: 9.99 nM
- IC50 [20]: 1090 nM
- IC50 [21]: 722 nM
- IC50 [22]: 80.5 nM
- IC50 [24]: 139 nM
- IC50 [25]: 235 nM
- IC50 [26]: 201 nM
- IC50 [27]: 44.6 nM
- IC50 [28]: 27 nM
- IC50 [29]: 1960 nM
- IC50 [30]: 248 nM
- IC50 [31]: 278 nM
- IC50 [32]: 189 nM
- IC50 [33]: 46.6 nM
- IC50 [34]: 75.9 nM
- IC50 [35]: 19.3 nM
- IC50 [36]: 19.7 nM
- IC50 [37]: 71.4 nM
- IC50 [38]: 18.9 nM
- IC50 [39]: 26.2 nM
- IC50 [40]: 739 nM
- IC50 [41]: 50.4 nM
- IC50 [42]: 1330 nM
- IC50 [43]: > 2000 nM
- IC50 [44]: 79.2 nM
- IC50 [45]: 85.4 nM
- IC50 [46]: 37.5 nM
- IC50 [48]: 420 nM
- IC50 [49]: 48.8 nM
- IC50 [50]: 31.6 nM
- IC50 [51]: 3.71 nM
- IC50 [52]: 112 nM
- IC50 [53]: 9.94 nM
- IC50 [54]: 168 nM
